According to patent EP0510235A1, “Novel benzoxazine or benzothiazine derivatives and process for the preparation of the same” (DONG-A PHARM. CO., LTD., priority 1991, dated 1992):
Several values for one entry are separate records, joined by “and”; a condition that tells them apart may be missing. Equal values may be shown once.

What was measured:
[1] = test system: blood-perfused sino-atrial preparation; assay: Determination of sinus rate on blood-perfused sino-atrial preparation; parameters: species or system dog; conditions: vs sinus rate prior to injection; for activation at 0.003 mg: dose 3.0 ug; for activation at 0.01 mg: dose 10.0 ug; for activation at 0.03 mg: dose 30.0 ug; for activation at 0.0001 mg: dose 0.1 ug; for change of sinus rate(%): listed as 8-methyl-6-(4-met-hylimidazol-1-)-( 4H)-3,1-benzothia-zin-2-one
Protocol: Mongrel dogs of either sex weighing 7-12kg were anesthetized with sodium pentoba rbital(30mg/kg i.v.). Heparin of 1000 unit/kg was administered to each animal intravenously and the animals were exsanguinated. Heart was removed and put in Krebs-Henselelt solution. Catheter was inserted into blood vessel between right coronary artery and SA nodes. Right artrium and catheter were together removed. Blood supplied from carotid artery of donor dog of either sex weighing 15-25kg, was supplied to blood vessel cather from right coronary artery and SA node under constant blood pressure of 100mmHg by use of Peristaltic pump. The resting tension of right atrial muscle was made to 2g. The sinus rate triggered by spontaneous contraction of atrial muscle was determined on Narco physiograph(Narcotrace 4). Detailed method was reported by S. Chiba, et al. in Japanese Pharmacology 25, 433-439(1975). Doses of test compounds were injected into flowing blood in gum tube connected to the near part of the catheter inserted into right coronary artery. The effects on sinus rate were shown as percent compared with the sinus rate prior to the injection of the test compounds.

[2] = test system: blood perfused papillary muscle preparation; assay: Determination of contractile power on blood perfused papillary muscle preparation; parameters: species or system dog; conditions: for ED 30: dose giving 30% increase of developed tension, least-square method
Protocol: Dogs of either sex weighing 7-12kg were anesthetized with sodium pentobarbital (30mg/kg,i.v.). Heparin of 1000 unit/kg was administered to each animal intravenously. The animals were exsanguinated and heart was removed. The preparation was perfused through the cannulated anterior septal artery(ASA) with arterial blood from a donor dog at constant pressure of about 100 mmHg. Donor dogs were anesthetized with sodium pentobarbital (30mg/kg, i.v.). Heparin of 1000 units/kg was administered intravenously. The papillary muscle was stimulated with rectangular pulses of 5- ms duration and about 1.5 times the threshold voltage at a rate of 120 stimuli/min through bipolar electrodes.Resting tension was made to 2 g.The developed tension of papillary muscle was determined by Isometric tresducer.Detailed method was reported by Matsumoto in Am. J. Physiol. 218, 1459-1463 (1970). Test compound at the doses of 10-30ul was injected in flowing blood in the gum tube connected to catheter. The inotropic effect of the test compounds was shown by change percent of developed tension compared with that prior to the administration of the test compounds.ED₃₀ value was determined by least-square method and the results were shown in the Table 1.

[3] = Acute toxicity test in rats, oral; conditions: rat, in vivo
Protocol: Acute toxicity test of 6-(4-methylimidazol-1-yl)-(4H)-3,1-benzoxazin-2-one was conducted in Spraque-Dawley rats. The test compound was suspended in 5% arabic gum and was administered orally to six rats at a dose of 300mg/kg body weight.
Accordingly, LD 50 of the compound is 300 mg/kg or more.

[4] = target: cyclic AMP phosphodiesterase; assay: Effect on cyclic AMP phosphodiesterase isolated from dog's heart; format: biochemical; conditions: substrate 1.0 uM; for Inhibitory effect on PDE activity: values fall with concentration
Protocol: Dogs weighing 10 kg were anesthetized with sodium pentobarbital and heparin was administered intravenously. Heart was removed. Two to four grams of left ventricular muscle was obtained and the tissue was rinsed in ice-cold salin. Left ventricular muscle was homogenized in10 volumes of homogenzing buffer(Tris-HCl, pH 7.8). Homogenate was then centrifuged at 100,000 X g for 40 minutes, after which the supernatent was removed. The pellet was resuspended in homogenizing buffer, centrifuged as before and the supernatent obtained as discarded. The pellet was resuspended in 10 volumes of homogenizing buffer containing Triton X-100 and Brij 30, and incubated overnight at 4°C. The detergent-extracted proteins were then separated by centrifugation at 100,000 X g for 40 monutes. The detergent-extracted protein was dialyzed against 70mM sodium acetate /5mM 2-mercaptoethanol(pH 6.5) for 5 hours. The dialyzed extract was applied to a DEAE-cellulose column and eluted using a 70-1000 mM sodium acetate gradient. Appropriate fractions were pooled and concentrated using Amicon ultrafiltration cell. Following concentration, the protein was diluted with ethylene glycol and stored at -20°C.
Phosphodiesterase activity was measured in a reaction medium (40mM Tris-HCl, pH 8.0). The concentration of substrate was 1.0 uM. The IC 50 values( concentration which produced 50% inhibition of substrate hydrolysis) for the various compounds examined were determined from concentration-response curves. Detailed method of this experiment was reported in J.Mol.Cell Cardiol. 19, 1025-1036 (1987).

[5] = Acute toxicity test in ICR mouse, intravenous; conditions: in vivo
Protocol: Acute toxicity test of 6-(4-methylimidazol-1-yl)-(4H)-3,1-benzothiazin-2-one was conducted in ICR mouse. The test compound was dissolved in a mixed solvent of saline and DMF (2:1) and was administered intraveneously to five mice at a dose of 30mg/kg body weight. […] Accordingly, LD₅₀ of the cmpound is 30mg/kg or more.

[6] = Acute toxicity test in mice, oral; conditions: mouse, in vivo
Protocol: Acute toxicity test of 6-(4-methylimidazol-1-yl)-(4H)-3,1-benzothiazine-2-thione was conducted in BALB/C mice. The test compound was suspended in 5% arabic gum solution and administered orally to five mice at a dose of 200 mg/kg body weight by gastric tubing. […] Accordingly, LD₅₀ of the compound is 200mg/kg or more.

[7] = Canis lupus familiaris, dose 1.0 ug, read-out: change of sinus rate(%)
[8] = Canis lupus familiaris, read-out: change of sinus rate(%)
[9] = at the ED 30 dose (30% by definition)

Row | SMILES | activation at 0.001 mg [1, 7] [%] | activation at 0.003 mg [1, 8] [%] | activation at 0.01 mg [1, 8] [%] | activation at 0.03 mg [1, 8] [%] | ED 30 [2] | change of contractivity(%) [2, 9] [%] | other results
1 | Cc1cn(-c2ccc3c(c2)COC(=O)N3)c(C)n1 [6-(2,4-dimethylimidzol-1-yl)-(4H)-3,1-benzoxazin-2-one] | 0 | 0 | 0 | 1.67 | ED 30 : 81.89 ug | – | –
2 | CCc1nc(C)cn1-c1ccc2c(c1)COC(=O)N2 [6-(2-ethyl-4-methylimidazol-1-yl)-(4H)-3,1-benzoxazin-2-one] | 0 | 0 | 0.83 | 1.65 | ED 30 : 269 ug | – | –
3 | Cc1nccn1-c1ccc2c(c1)COC(=O)N2 [6-(2-methylimidazol-1-yl)-(4H)-3,1-benzoxazine-2-one] | 0 | 0 | 0.86 | 3.42 | ED 30 > 1000 ug | – | –
4 | Cc1cn(-c2ccc3c(c2)COC(=O)N3)cn1 [6-(4-methylimidazol-1-yl)(4H)-3,1-benzoxazin-2-one] | 0 | 2.52 | 5.04 | – | ED 30 : 10.4 ug | – | LD50 [3]: ≥ 300 mg/kg; IC50 ([4]; 50% inhibition of substrate hydrolysis): 12.8 µM; Inhibitory effect on PDE activity ([4]; test compound 0.1 uM): 95.1; Inhibitory effect on PDE activity ([4]; test compound 1 uM): 77.5; Inhibitory effect on PDE activity ([4]; test compound 10 uM): 51.7; Inhibitory effect on PDE activity ([4]; test compound 100 uM): 35.8
5 | Cc1cn(-c2ccc3c(c2)CSC(=O)N3)cn1 [6-(4-methylimidazol-1-yl)-(4H)-3,1-benzothiazin-2-one] | – | 2.3 | – | 5.6 | – | 30 | LD50 [5]: ≥ 30 mg/kg; change of contractivity(%) ([2]; dose 1.0 ug injected into perfusing blood, developed tension vs before administration): 0.0%; change of contractivity(%) ([2]; dose 3.0 ug injected into perfusing blood, developed tension vs before administration): 7.2% and 1.5%; change of contractivity(%) ([2]; dose 10.0 ug injected into perfusing blood, developed tension vs before administration): 20.5% and 11.5%; change of contractivity(%) ([2]; dose 30.0 ug injected into perfusing blood, developed tension vs before administration): 30.7% and 23.3%
6 | Cc1cn(-c2ccc3c(c2)CSC(=S)N3)cn1 [6-(4-methylimidazol-1-yl)-(4H)-3,1-benzothiazine-2-thione] | – | – | – | – | – | – | LD50 [6]: ≥ 200 mg/kg
7 | O=C1Nc2ccc(-n3cnc4ccccc43)cc2CO1 [6-(benzimidazol-1-yl)-(4H)-benzoxazin-2-one] | 0 | 0 | 0.3 | 0.75 | ED 30 > 1000 ug | – | Inhibitory effect on PDE activity ([4]; test compound 0.1 uM, listed as 6-(benzimidazol-1-yl)-(4H)-3,1-benzoxazin-2-one): 95.5; Inhibitory effect on PDE activity ([4]; test compound 1 uM, listed as 6-(benzimidazol-1-yl)-(4H)-3,1-benzoxazin-2-one): 90.4; Inhibitory effect on PDE activity ([4]; test compound 10 uM, listed as 6-(benzimidazol-1-yl)-(4H)-3,1-benzoxazin-2-one): 72.3; Inhibitory effect on PDE activity ([4]; test compound 100 uM, listed as 6-(benzimidazol-1-yl)-(4H)-3,1-benzoxazin-2-one): 49.5
8 | O=C1Nc2ccc(-n3ccnc3)cc2CS1 [6-(imidazol-1-yl)-(4H)-3,1-benzothiazin-2-one] | – | – | – | – | – | 30 | –
9 | O=C1Nc2ccc(-n3ccnc3)cc2CO1 [6-(imidazol-1-yl)-(4H)-3,1-benzoxazin-2-one] | 0 | 0.84 | 2.52 | 6.67 | ED 30 > 1000 ug | – | Inhibitory effect on PDE activity ([4]; test compound 0.1 uM): 98.4; Inhibitory effect on PDE activity ([4]; test compound 1 uM): 74.5; Inhibitory effect on PDE activity ([4]; test compound 10 uM): 52.2; Inhibitory effect on PDE activity ([4]; test compound 100 uM): 28.8
10 | Cc1cn(-c2cc(C)c3c(c2)CSC(=O)N3)cn1 [8-methyl-6-(4-methylimidazol-1-yl)-(4H)-3,1-benzothiazin-2-one] | – | 3.3 | – | – | ED 30 = 5.0 ug | 30.0 | activation at 0.0001 mg [1, 8]: 1.7%; change of sinus rate(%) ([1]; dose 0.3 ug): 4.8%; change of sinus rate(%) ([1]; dose 1.0 ug): 8.3%; ED 30 ([2]; listed as 8-methyl-6-(4-met-hylimidazol-1-)-( 4H)-3,1-benzothia-zin-2-one): ED 30 = 0.6 ug
11 | Cc1cn(-c2cc(C)c3c(c2)COC(=O)N3)cn1 [8-methyl-6-(4-methylimidazol-1-yl)-(4H)-3,1-benzoxazin-2-one] | 6.6 | 5.8 | – | – | ED 30 = 1.2 ug | 30.0 | activation at 0.0001 mg [1, 8]: 0.8%; activation at 0.0003 mg ([1]; Canis lupus familiaris, dose 0.3 ug, read-out: change of sinus rate(%)): 1.7%
